According to ChEMBL document CHEMBL5576042, “Fungal Depsidones Stimulate AKT-Dependent Glucose Uptake in 3T3-L1 Adipocytes” (J Nat Prod, 2024):
One block for each compound: values may come before it. Active and inactive are the calls of the source. The rule behind the calls is not given here.

Legend:
[1] = test system: 3T3-L1; assay: Effect on GLUT4 mRNA expression in mouse 3T3-L1 cells at 11 uM incubated for 6 hrs by real time qPCR analysis; type: functional, cell-based
[2] = test system: 3T3-L1; assay: Induction of glucose uptake in insulin resistant-mouse 3T3-L1 cells assessed as fold increase in glucose uptake at 11 uM incubated for 16 hrs in presence of 2-[3H]-deoxyglucose and insulin; type: functional
[3] = test system: 3T3-L1; assay: Induction of glucose uptake in mouse 3T3-L1 cells assessed as increase in glucose uptake at 11.27 uM in presence 2-[3H]-deoxyglucose by microbeta analysis; type: functional, cell-based; details: time 3-16 hrs, TDE = time-dependent effect
[4] = target: T1, Solute carrier family 2, facilitated glucose transporter member 4 (Mus musculus) (UniProt P14142); assay: Induction of GLUT4 translocation in mouse 3T3-L1 cells membrane by Western blot analysis; type: cell membranes
T1 sequence (whole entry): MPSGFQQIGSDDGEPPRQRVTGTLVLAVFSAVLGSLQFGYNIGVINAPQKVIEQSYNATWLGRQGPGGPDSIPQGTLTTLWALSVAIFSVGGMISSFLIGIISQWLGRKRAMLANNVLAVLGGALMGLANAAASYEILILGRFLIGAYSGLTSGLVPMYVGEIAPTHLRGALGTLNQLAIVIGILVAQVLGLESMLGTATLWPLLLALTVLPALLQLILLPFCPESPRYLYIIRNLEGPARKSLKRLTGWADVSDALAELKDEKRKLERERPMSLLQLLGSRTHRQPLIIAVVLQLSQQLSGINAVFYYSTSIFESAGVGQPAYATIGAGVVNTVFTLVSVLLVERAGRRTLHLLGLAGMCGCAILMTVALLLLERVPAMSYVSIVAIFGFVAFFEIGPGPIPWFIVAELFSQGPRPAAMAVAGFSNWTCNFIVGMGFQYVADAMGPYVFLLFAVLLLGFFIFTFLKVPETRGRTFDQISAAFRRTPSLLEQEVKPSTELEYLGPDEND

[5] = test system: 3T3-L1; assay: Induction of AKT phosphorylation at ser473 residue in mouse 3T3-L1 cells measured up to 6 hrs by Western blot analysis; type: cell-based; details: filed as activator
[6] = target: T1, Solute carrier family 2, facilitated glucose transporter member 4 (Mus musculus); assay: Induction of GLUT4 translocation in mouse 3T3-L1 cells Cytosol by Western blot analysis; type: subcellular
[7] = test system: 3T3-L1; assay: Induction of glucose uptake in insulin resistant-mouse 3T3-L1 cells assessed as fold increase in glucose uptake at 11 uM incubated for 16 hrs in presence of 2-[3H]-deoxyglucose; type: functional
[8] = test system: 3T3-L1; assay: Induction of glucose uptake in mouse 3T3-L1 cells assessed as increase in glucose uptake by measuring fold change at 11 uM incubated for 6 hrs in presence of 0.25 uM wortmannin; type: functional
[9] = test system: 3T3-L1; assay: Induction of glucose uptake in insulin-stimulated mouse 3T3-L1 cells assessed as increase in glucose uptake at 100 nM incubated for 16 hrs presence 2-[3H]-deoxyglucose by microbeta analysis; type: functional, cell-based
[10] = test system: 3T3-L1; assay: Induction of glucose uptake in mouse 3T3-L1 cells assessed as increase in glucose uptake at 11 uM incubated for 16 hrs in presence of 0.1 uM wortmannin; type: functional, cell-based
[11] = test system: 3T3-L1; assay: Induction of glucose uptake in mouse 3T3-L1 cells assessed as increase in glucose uptake incubated for 16 hrs in presence 2-[3H]-deoxyglucose by microbeta analysis; type: functional, cell-based; details: dose 2.8-11 µM
[12] = test system: 3T3-L1; assay: Induction of glucose uptake in mouse 3T3-L1 cells assessed as increase in glucose uptake by measuring fold change at 11 uM incubated for 6 hrs in presence of 0.1 uM wortmannin; type: functional
[13] = test system: 3T3-L1; assay: Induction of glucose uptake in metformin-stimulated mouse 3T3-L1 cells assessed as increase in glucose uptake at 11 uM incubated for 16 hrs presence 2-[3H]-deoxyglucose by microbeta analysis; type: functional
[14] = test system: 3T3-L1; assay: Induction of AKT phosphorylation at ser473 residue in insulin-resistant mouse 3T3-L1 cells assessed as fold change in presence of insulin; type: cell-based; details: filed as activator
[15] = test system: 3T3-L1; assay: Induction of glucose uptake in mouse 3T3-L1 cells assessed as increase in glucose uptake by measuring fold change at 11 uM incubated for 6 hrs in presence of 0.5 uM wortmannin; type: functional
[16] = test system: 3T3-L1; assay: Induction of glucose uptake in insulin-stimulated mouse 3T3-L1 cells assessed as increase in glucose uptake at 11 uM incubated for 16 hrs presence 2-[3H]-deoxyglucose by microbeta analysis; type: functional
[17] = target: T2, Solute carrier family 2, facilitated glucose transporter member 1 (Mus musculus) (UniProt P17809); assay: Induction of GLUT1 translocation in mouse 3T3-L1 cells Cytosol by Western blot analysis; type: subcellular
T2 sequence (whole entry): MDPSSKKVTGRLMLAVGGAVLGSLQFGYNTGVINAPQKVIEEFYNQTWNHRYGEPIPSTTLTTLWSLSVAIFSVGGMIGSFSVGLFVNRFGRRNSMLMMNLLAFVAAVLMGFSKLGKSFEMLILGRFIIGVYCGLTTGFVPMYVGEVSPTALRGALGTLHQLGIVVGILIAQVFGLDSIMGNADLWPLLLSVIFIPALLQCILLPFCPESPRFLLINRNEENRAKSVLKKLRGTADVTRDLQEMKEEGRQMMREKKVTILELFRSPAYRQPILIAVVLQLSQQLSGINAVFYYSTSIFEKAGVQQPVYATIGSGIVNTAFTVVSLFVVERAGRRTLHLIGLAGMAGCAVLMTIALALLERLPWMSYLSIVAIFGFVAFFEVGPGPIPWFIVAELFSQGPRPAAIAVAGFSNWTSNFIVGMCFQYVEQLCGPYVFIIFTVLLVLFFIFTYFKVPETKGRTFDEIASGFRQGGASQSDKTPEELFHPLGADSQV

[18] = target: T2, Solute carrier family 2, facilitated glucose transporter member 1 (Mus musculus); assay: Induction of GLUT1 translocation in mouse 3T3-L1 cells membrane assessed as fold increase in Na+/K+ ATPase level by Western blot analysis; type: cell membranes
[19] = Effect on ACTbeta mRNA expression in mouse 3T3-L1 cells assessed as fold change at 11 uM incubated for 6 hrs by real time qPCR analysis; type: functional
[20] = Upregulation of AMPK expression in mouse 3T3-L1 cells assessed as fold change at 11 uM measured at 1 hr by Western blot analysis; type: functional
[21] = target: T1, Solute carrier family 2, facilitated glucose transporter member 4 (Mus musculus); assay: Induction of GLUT4 translocation in mouse 3T3-L1 cells membrane assessed as fold increase in Na+/K+ ATPase level by Western blot analysis; type: cell membranes
[22] = test system: 3T3-L1; assay: Induction of AKT phosphorylation at ser473 residue in mouse 3T3-L1 cells assessed as fold change at 11 uM measured at 1 hr by Western blot analysis; type: cell-based; details: filed as activator
[23] = test system: 3T3-L1; assay: Induction of AKT phosphorylation at ser473 residue in insulin-resistant mouse 3T3-L1 cells in presence of insulin; type: cell-based; details: filed as activator
[24] = test system: 3T3-L1; assay: Induction of glucose uptake in mouse 3T3-L1 cells assessed as increase in glucose uptake at 11 uM incubated for 6 hrs in presence of 0.5 uM wortmannin; type: functional
[25] = Effect on NONO mRNA expression in mouse 3T3-L1 cells assessed as fold change at 11 uM incubated for 6 hrs by real time qPCR analysis; type: functional
[26] = Effect on GLUT4 protein level in mouse 3T3-L1 cells assessed as fold change at 11 uM incubated for 16 hrs; type: functional
[27] = Upregulation of AMPK expression in mouse 3T3-L1 cells assessed as fold change at 11 uM measured at 6 hrs by Western blot analysis; type: functional
[28] = test system: 3T3-L1; assay: Induction of AKT phosphorylation at ser473 residue in mouse 3T3-L1 cells assessed as fold change at 11 uM measured at 6 hrs by Western blot analysis; type: cell-based; details: filed as activator
[29] = test system: 3T3-L1; assay: Cytotoxicity against mouse 3T3-L1 cells assessed as reduction in cell viability at 45 to 68 uM incubated for 18 hrs; type: toxicity, cell-based; details: 3t3-l1, 18 h, dose 45-68 µM
[30] = test system: 3T3-L1; assay: Induction of glucose uptake in mouse 3T3-L1 cells assessed as increase in glucose uptake at 11 uM incubated for 16 hrs in presence of 0.1 uM dorsomorphin; type: functional, cell-based
[31] = test system: 3T3-L1; assay: Induction of glucose uptake in mouse 3T3-L1 cells assessed as increase in glucose uptake at 11 uM incubated for 16 hrs in presence of wortmannin; type: functional, cell-based
[32] = test system: 3T3-L1; assay: Induction of glucose uptake in mouse 3T3-L1 cells assessed as increase in glucose uptake at 2.3 uM incubated for 16 hrs in presence of 2-[3H]-deoxyglucose by microbeta analysis; type: functional
[33] = test system: 3T3-L1; assay: Induction of glucose uptake in mouse 3T3-L1 cells assessed as increase in glucose uptake at 3.1 uM incubated for 16 hrs in presence of 2-[3H]-deoxyglucose by microbeta analysis; type: functional

- Activity [4]: Active
- Activity [6]: Active
- Activity [17]: Active
- fold change (FC) [18]: 1.6
- fold change (FC) [21]: 1.7
SMILES: C/C=C(\C)c1c(Cl)c(OC)c(C)c2c1Oc1c(Cl)c(O)c(Cl)c(C)c1C(=O)O2
- Activity [1]: Active
- fold change (FC) [2]: 2.7
- Activity [3]: Tde
- Activity [5]: Active
- fold change (FC) [7]: 2.4
- fold change (FC) [8]: 1.4
- Activity [9]: Active
- Activity [10]: inactive
- Activity [11]: Dose-Dependent Effect
- fold change (FC) [12]: 1.5
- Activity [13]: 252%
- fold change (FC) [14]: 2.1
- fold change (FC) [15]: 1.2
- Activity [16]: 276%
- fold change (FC) [19]: 1.92
- fold change (FC) [20]: 3.7
- fold change (FC) [22]: 2.4
- Activity [23]: Active
- Activity [24]: 20%
- fold change (FC) [25]: 2.07
- fold change (FC) [26]: 1.67
- fold change (FC) [27]: 3.8
- fold change (FC) [28]: 19
- Activity [29]: Non-Toxic
- Activity [30]: inactive
- Activity [31]: inactive
- Activity [32]: 141%

SMILES: C/C=C(\C)c1c(Cl)c(O)c(C)c2c1Oc1c(Cl)c(O)c(Cl)c(C)c1C(=O)O2
- Activity [32]: 121%

SMILES: C/C=C(\C)c1cc(O)c(C)c2c1Oc1cc(O)cc(C)c1C(=O)O2
- Activity [33]: 124%
